# Source: US9403813B2, “Azetidine amide derivatives as orexin receptor antagonists” (ACTELION PHARMACEUTICALS LTD, priority 2013, dated 2016)
# Legend:
# human orexin-1 receptor = human orexin-1 receptor (Homo sapiens (Human), UniProt O43613); test: Intracellular calcium measurements (FLIPR), antagonism of orexin-A response; format: cell-based; conditions: CHO cells expressing human orexin-1 receptor, 3 nM orexin-A, geometric mean if determined several times, read-out: IC50 OX1
# Description: (§1) Antagonistic activities on both orexin receptors have been measured for each example compound using the following procedure:
# (§2) In Vitro Assay: Intracellular Calcium Measurements:
# (§3) Chinese hamster ovary (CHO) cells expressing the human orexin-1 receptor and the human orexin-2 receptor, respectively, are grown in culture medium (Ham F-12 with L-Glutamine) containing 300 μg/mL G418, 100 U/mL penicillin, 100 μg/mL streptomycin and 10% heat inactivated fetal calf serum (FCS). The cells are seeded at 20,000 cells/well into 384-well black clear bottom sterile plates (Greiner). The seeded plates are incubated overnight at 37° C. in 5% CO2. Human orexin-A as an agonist is prepared as 1 mM stock solution in MeOH:water (1:1), diluted in HBSS containing 0.1% bovine serum albumin (BSA), NaHCO3: 0.375 g/L and 20 mM HEPES for use in the assay at a final concentration of 3 nM.
# (§4) Antagonists are prepared as 10 mM stock solution in DMSO, then diluted in 384-well plates using DMSO followed by a transfer of the dilutions into in HBSS containing 0.1% bovine serum albumin (BSA), NaHCO3: 0.375 g/L and 20 mM HEPES. On the day of the assay, 50 μL of staining buffer (HBSS containing 1% FCS, 20 mM HEPES, NaHCO3: 0.375 g/L, 5 mM probenecid (Sigma) and 3 μM of the fluorescent calcium indicator fluo-4 AM (1 mM stock solution in DMSO, containing 10% pluronic) is added to each well. The 384-well cell-plates are incubated for 50 min at 37° C. in 5% CO2 followed by equilibration at rt for 30 min before measurement.
# (§5) Within the Fluorescent Imaging Plate Reader (FLIPR Tetra, Molecular Devices), antagonists are added to the plate in a volume of 10 μL/well, incubated for 120 min and finally 10 μL/well of agonist is added. Fluorescence is measured for each well at 1 second intervals, and the height of each fluorescence peak is compared to the height of the fluorescence peak induced by 3 nM orexin-A with vehicle in place of antagonist. The IC50 value (the concentration of compound needed to inhibit 50% of the agonistic response) is determined and may be normalized using the obtained IC50 value of an on-plate reference compound. Optimized conditions were achieved by adjustment of pipetting speed and cell splitting regime. The calculated IC50 values may fluctuate depending on the daily cellular assay performance. Fluctuations of this kind are known to those skilled in the art. In the case where IC50 values have been determined several times for the same compound, the geometric mean has been given.
# human orexin-2 receptor = human orexin-2 receptor (Homo sapiens (Human), UniProt O43614); test: as above; format: cell-based; conditions: CHO cells expressing human orexin-2 receptor, 3 nM orexin-A, geometric mean if determined several times, read-out: IC50 OX2
# human orexin-2 receptor, sequence (O43614 whole entry): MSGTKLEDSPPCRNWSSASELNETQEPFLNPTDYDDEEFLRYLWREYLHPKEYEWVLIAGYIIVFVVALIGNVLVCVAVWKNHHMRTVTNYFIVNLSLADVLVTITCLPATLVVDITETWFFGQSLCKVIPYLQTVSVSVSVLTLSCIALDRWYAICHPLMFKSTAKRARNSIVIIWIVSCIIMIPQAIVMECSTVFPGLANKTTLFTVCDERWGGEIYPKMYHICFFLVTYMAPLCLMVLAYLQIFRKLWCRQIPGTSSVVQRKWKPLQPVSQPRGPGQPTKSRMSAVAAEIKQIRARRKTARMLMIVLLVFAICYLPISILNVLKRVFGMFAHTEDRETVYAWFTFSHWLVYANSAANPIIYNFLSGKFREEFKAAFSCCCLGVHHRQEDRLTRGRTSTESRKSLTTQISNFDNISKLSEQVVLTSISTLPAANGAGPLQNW
# Description: as §1, §2, §3, §4, §5
# human orexin-1 receptor, sequence (O43613 whole entry): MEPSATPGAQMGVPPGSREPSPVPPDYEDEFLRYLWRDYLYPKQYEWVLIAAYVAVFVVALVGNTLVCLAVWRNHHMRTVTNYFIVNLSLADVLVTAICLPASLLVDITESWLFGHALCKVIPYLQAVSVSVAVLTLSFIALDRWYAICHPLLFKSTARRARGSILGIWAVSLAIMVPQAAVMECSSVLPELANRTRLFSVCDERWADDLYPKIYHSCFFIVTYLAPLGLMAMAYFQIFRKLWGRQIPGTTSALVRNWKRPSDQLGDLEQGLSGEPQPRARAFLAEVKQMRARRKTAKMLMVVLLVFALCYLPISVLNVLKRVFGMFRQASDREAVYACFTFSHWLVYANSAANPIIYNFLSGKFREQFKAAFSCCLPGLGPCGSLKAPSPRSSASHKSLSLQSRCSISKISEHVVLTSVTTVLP
smiles,measurement,setting,value
"Cc1ccc(C(=O)N2CC[C@H]2c2nc(-c3cccc(F)c3C)no2)c(-n2nccn2)c1 [Example 22, {(S)-2-[3-(3-Fluoro-2-methyl-phenyl)-[1,2,4]oxadiazol-5-yl]-azetidin-1-yl}-(4-methyl-2-[1,2,3]triazol-2-yl-phenyl)-methanone]",IC50,human orexin-1 receptor,821 nM
same,IC50,human orexin-2 receptor,23 nM
"COc1cc(C(=O)N2CC[C@H]2c2nc(-c3ccccc3OC(F)(F)F)no2)c(-n2nccn2)cc1F [Example 23, (4-Fluoro-5-methoxy-2-[1,2,3]triazol-2-yl-phenyl)-{(S)-2-[3-(2-trifluoromethoxy-phenyl)-[1,2,4]oxadiazol-5-yl]-azetidin-1-yl}-methanone]",IC50,human orexin-1 receptor,1420 nM
same,IC50,human orexin-2 receptor,39 nM
"COc1cc(C(=O)N2CC[C@H]2c2nc(-c3cccc(Cl)c3C)no2)c(-n2nccn2)cc1F [Example 24, {(S)-2-[3-(3-Chloro-2-methyl-phenyl)-[1,2,4]oxadiazol-5-yl]-azetidin-1-yl}-(4-fluoro-5-methoxy-2-[1,2,3]triazol-2-yl-phenyl)-methanone]",IC50,human orexin-1 receptor,963 nM
same,IC50,human orexin-2 receptor,25 nM
"COc1cc(C(=O)N2CC[C@H]2c2nc(-c3cccc(F)c3C)no2)c(-n2nccn2)cc1F [Example 25, (4-Fluoro-5-methoxy-2-[1,2,3]triazol-2-yl-phenyl)-{(S)-2-[3-(3-fluoro-2-methyl-phenyl)-[1,2,4]oxadiazol-5-yl]-azetidin-1-yl}-methanone]",IC50,human orexin-1 receptor,1750 nM
same,IC50,human orexin-2 receptor,27 nM
"COc1cc(C(=O)N2CC[C@H]2c2nc(-c3cccc(F)c3OC)no2)c(-n2nccn2)cc1F [Example 26, {(S)-2-[3-(3-Fluoro-2-methoxy-phenyl)-[1,2,4]oxadiazol-5-yl]-azetidin-1-yl}-(4-fluoro-5-methoxy-2-[1,2,3]triazol-2-yl-phenyl)-methanone]",IC50,human orexin-1 receptor,2080 nM
same,IC50,human orexin-2 receptor,26 nM
"COc1cc(C(=O)N2CC[C@H]2c2nc(-c3ccccc3OC(F)(F)F)no2)c(-n2nccn2)cc1C [Example 27, (5-Methoxy-4-methyl-2-[1,2,3]triazol-2-yl-phenyl)-{(S)-2-[3-(2-trifluoromethoxy-phenyl)-[1,2,4]oxadiazol-5-yl]-azetidin-1-yl}-methanone]",IC50,human orexin-1 receptor,220 nM
same,IC50,human orexin-2 receptor,6 nM
"COc1cc(C(=O)N2CC[C@H]2c2nc(-c3cccc(Cl)c3C)no2)c(-n2nccn2)cc1C [Example 28, {(S)-2-[3-(3-Chloro-2-methyl-phenyl)-[1,2,4]oxadiazol-5-yl]-azetidin-1-yl}-(5-methoxy-4-methyl-2-[1,2,3]triazol-2-yl-phenyl)-methanone]",IC50,human orexin-1 receptor,397 nM
same,IC50,human orexin-2 receptor,2 nM
"COc1cc(C(=O)N2CC[C@H]2c2nc(-c3cccc(F)c3C)no2)c(-n2nccn2)cc1C [Example 29, {(S)-2-[3-(3-Fluoro-2-methyl-phenyl)-[1,2,4]oxadiazol-5-yl]-azetidin-1-yl}-(5-methoxy-4-methyl-2-[1,2,3]triazol-2-yl-phenyl)-methanone]",IC50,human orexin-1 receptor,671 nM
same,IC50,human orexin-2 receptor,4 nM
"CCOc1ncccc1-c1noc([C@@H]2CCN2C(=O)c2cc(C)ccc2-n2nccn2)n1 [Example 30, {(S)-2-[3-(2-Ethoxy-pyridin-3-yl)-[1,2,4]oxadiazol-5-yl]-azetidin-1-yl}-(5-methyl-2-[1,2,3]triazol-2-yl-phenyl)-methanone]",IC50,human orexin-1 receptor,295 nM
same,IC50,human orexin-2 receptor,10 nM
"CCOc1ncccc1-c1noc([C@@H]2CCN2C(=O)c2cc(C)c(C)cc2-n2nccn2)n1 [Example 31, (4,5-Dimethyl-2-[1,2,3]triazol-2-yl-phenyl)-{(S)-2-[3-(2-ethoxy-pyridin-3-yl)-[1,2,4]oxadiazol-5-yl]-azetidin-1-yl}-methanone]",IC50,human orexin-1 receptor,68 nM
same,IC50,human orexin-2 receptor,3 nM
"CCOc1ncccc1-c1noc([C@@H]2CCN2C(=O)c2ccc(C)cc2-n2nccn2)n1 [Example 32, {(S)-2-[3-(2-Ethoxy-pyridin-3-yl)-[1,2,4]oxadiazol-5-yl]-azetidin-1-yl}-(4-methyl-2-[1,2,3]triazol-2-yl-phenyl)-methanone]",IC50,human orexin-1 receptor,819 nM
same,IC50,human orexin-2 receptor,100 nM
"CCOc1ncccc1-c1noc([C@@H]2CCN2C(=O)c2cc(OC)c(F)cc2-n2nccn2)n1 [Example 33, {(S)-2-[3-(2-Ethoxy-pyridin-3-yl)-[1,2,4]oxadiazol-5-yl]-azetidin-1-yl}-(4-fluoro-5-methoxy-2-[1,2,3]triazol-2-yl-phenyl)-methanone]",IC50,human orexin-1 receptor,1500 nM
same,IC50,human orexin-2 receptor,27 nM
"CCOc1ncccc1-c1noc([C@@H]2CCN2C(=O)c2cc(OC)c(C)cc2-n2nccn2)n1 [Example 34, {(S)-2-[3-(2-Ethoxy-pyridin-3-yl)-[1,2,4]oxadiazol-5-yl]-azetidin-1-yl}-(5-methoxy-4-methyl-2-[1,2,3]triazol-2-yl-phenyl)-methanone]",IC50,human orexin-1 receptor,238 nM
same,IC50,human orexin-2 receptor,5 nM
"Cc1ccc(-n2nccn2)c(C(=O)N2CC[C@H]2c2nc(-c3cccnc3OC3CCC3)no2)c1 [Example 35, {(S)-2-[3-(2-Cyclobutoxy-pyridin-3-yl)-[1,2,4]oxadiazol-5-yl]-azetidin-1-yl}-(5-methyl-2-[1,2,3]triazol-2-yl-phenyl)-methanone]",IC50,human orexin-1 receptor,292 nM
same,IC50,human orexin-2 receptor,71 nM
"Cc1ccc(-n2nccn2)c(C(=O)N2CC[C@H]2c2nc(-c3ccccc3)no2)c1 [Example 36, (5-Methyl-2-[1,2,3]triazol-2-yl-phenyl)-[(S)-2-(3-phenyl-[1,2,4]oxadiazol-5-yl)-azetidin-1-yl]-methanone]",IC50,human orexin-1 receptor,3820 nM
same,IC50,human orexin-2 receptor,287 nM
"Cc1nc(C(=O)N2CC[C@H]2c2nc(-c3ccccc3OC(F)(F)F)no2)c(-c2ccccc2F)s1 [Example 37, [5-(2-Fluoro-phenyl)-2-methyl-thiazol-4-yl]-{(S)-2-[3-(2-trifluoromethoxy-phenyl)-[1,2,4]oxadiazol-5-yl]-azetidin-1-yl}-methanone]",IC50,human orexin-1 receptor,458 nM
same,IC50,human orexin-2 receptor,59 nM
"Cc1cccc(-c2sc(C)nc2C(=O)N2CC[C@H]2c2nc(-c3ccccc3OC(F)(F)F)no2)c1 [Example 38, (2-Methyl-5-m-tolyl-thiazol-4-yl)-{(S)-2-[3-(2-trifluoromethoxy-phenyl)-[1,2,4]oxadiazol-5-yl]-azetidin-1-yl}-methanone]",IC50,human orexin-1 receptor,322 nM
same,IC50,human orexin-2 receptor,119 nM
"Cc1ccc(-c2ccccc2)c(C(=O)N2CC[C@H]2c2nc(-c3ccccc3OC(F)(F)F)no2)c1 [Example 39, (4-Methyl-biphenyl-2-yl)-{(S)-2-[3-(2-trifluoromethoxy-phenyl)-[1,2,4]oxadiazol-5-yl]-azetidin-1-yl}-methanone]",IC50,human orexin-1 receptor,75 nM
same,IC50,human orexin-2 receptor,4 nM
"Cc1nc(C(=O)N2CC[C@H]2c2nc(-c3ccccc3OC(F)(F)F)no2)c(-c2ccccc2)s1 [Example 40, (2-Methyl-5-phenyl-thiazol-4-yl)-{(S)-2-[3-(2-trifluoromethoxy-phenyl)-[1,2,4]oxadiazol-5-yl]-azetidin-1-yl}-methanone]",IC50,human orexin-1 receptor,221 nM
same,IC50,human orexin-2 receptor,41 nM
"CN(C)c1nc(C(=O)N2CC[C@H]2c2nc(-c3ccccc3OC(F)(F)F)no2)c(-c2ccccc2)s1 [Example 41, (2-Dimethylamino-5-phenyl-thiazol-4-yl)-{(S)-2-[3-(2-trifluoromethoxy-phenyl)-[1,2,4]oxadiazol-5-yl]-azetidin-1-yl}-methanone]",IC50,human orexin-1 receptor,43 nM
same,IC50,human orexin-2 receptor,10 nM
"O=C(c1ncsc1-c1ccccc1)N1CC[C@H]1c1nc(-c2ccccc2OC(F)(F)F)no1 [Example 42, (5-Phenyl-thiazol-4-yl)-{(S)-2-[3-(2-trifluoromethoxy-phenyl)-[1,2,4]oxadiazol-5-yl]-azetidin-1-yl}-methanone]",IC50,human orexin-1 receptor,400 nM
same,IC50,human orexin-2 receptor,266 nM
"O=C(c1ncsc1-c1cccc(Cl)c1)N1CC[C@H]1c1nc(-c2ccccc2OC(F)(F)F)no1 [Example 43, [5-(3-Chloro-phenyl)-thiazol-4-yl]-{(S)-2-[3-(2-trifluoromethoxy-phenyl)-[1,2,4]oxadiazol-5-yl]-azetidin-1-yl}-methanone]",IC50,human orexin-1 receptor,288 nM
same,IC50,human orexin-2 receptor,357 nM
"Cc1ccc(-c2sc(C)nc2C(=O)N2CC[C@H]2c2nc(-c3ccccc3OC(F)(F)F)no2)cc1 [Example 44, (2-Methyl-5-p-tolyl-thiazol-4-yl)-{(S)-2-[3-(2-trifluoromethoxy-phenyl)-[1,2,4]oxadiazol-5-yl]-azetidin-1-yl}-methanone]",IC50,human orexin-1 receptor,282 nM
same,IC50,human orexin-2 receptor,73 nM
